Results reported in US20130035229A1 (priority 2010, published 2013).
Where two headings read alike, the source gives them in different places.

Experiments:
Botrytis cinerea = assay: Microtest: activity against the grey mold pathogen Botrytis cinerea (micro titer plate, absorption 405 nm, 7 days); format: cell-based; conditions: single compound, 7 days after inoculation
Pyricularia oryzae = format: cell-based; conditions: single compound, 7 days after inoculation

SMILES: Fc1cccc([C@@]2(Cn3ncnc3S)O[C@@H]2c2ccccc2Cl)c1 (relative stereo) [II-1, 2-[rel-(2S;3R)-3-(2-chlorophenyl)-2-(3-fluorophenyl)-oxiranylmethyl]-2H-[1,2,4]triazole-3-thiol]
- Observed efficacy (Botrytis cinerea; 16 ppm): 8%
- Observed efficacy (Botrytis cinerea; 63 ppm): 24%
- Observed efficacy (Pyricularia oryzae; 63 ppm): 27%

SMILES: Cn1cc(C(=O)Nc2ccccc2-c2cc(F)c(F)c(F)c2)c(C(F)F)n1 [Fluxapyroxad, reference compound]
- Observed efficacy (Botrytis cinerea; 0.063 ppm): 29%

SMILES: Fc1ccc(F)c2c(NCCc3ccc(Oc4cc(C(F)(F)F)ccn4)cc3)ncnc12 [I-5, (5,8-Difluoro-quinazolin-4-yl)-{2-[4-(4-trifluoromethyl-pyridin-2-yloxy)-phenyl]-ethyl}-amine]
- Observed efficacy (Botrytis cinerea; 1 ppm): 14%
- Observed efficacy (Pyricularia oryzae; 4 ppm): 58%

SMILES: COc1cc(CCNc2ncnc3c(F)ccc(F)c23)ccc1Oc1ncc(C(F)(F)F)cc1Cl [I-17, (5,8-Difluoro-quinazolin-4-yl)-{2-[4-(3-chloro-5-trifluoromethyl-pyridin-2-yloxy)-3-methoxy-phenyl]-ethyl}-amine]
- Observed efficacy (Botrytis cinerea; 4 ppm): 5%
- Observed efficacy (Pyricularia oryzae; 4 ppm): 56%

SMILES: COc1cc(CCNc2ncnc3c(F)ccc(F)c23)ccc1Oc1cc(C(F)(F)F)ccn1 [I-18, (5,8-Difluoro-quinazolin-4-yl)-{2-[4-(4-trifluoromethyl-pyridin-2-yloxy)-3-methoxy-phenyl]-ethyl}-amine]
- Observed efficacy (Botrytis cinerea; 4 ppm): 4%
- Observed efficacy (Pyricularia oryzae; 4 ppm): 57%

SMILES: COc1cc(CCNc2ncnc3c(F)cc(F)c(F)c23)ccc1Oc1cc(C(F)(F)F)ccn1 [I-19, (5,6,8-Trifluoro-quinazolin-4-yl)-{2-[4-(4-trifluoromethyl-pyridin-2-yloxy)-3-methoxy-phenyl]-ethyl}-amine]
- Observed efficacy (Botrytis cinerea; 1 ppm): 12%
